Experimental data reported in PMC5681922, “Systemic Responses of Multidrug-Resistant Pseudomonas aeruginosa and Acinetobacter baumannii Following Exposure to the Antimicrobial Peptide Cathelicidin-BF Imply Multiple Intracellular Targets” (Frontiers in Cellular and Infection Microbiology, 2017).

Assays:
P. aeruginosa 1409 [1] = experiment: Minimal inhibitory concentration (given as multiples of MIC); assay type: cell-based, Pseudomonas aeruginosa; settings: MDR clinical isolate; MIC itself not given, only this multiple
P. aeruginosa 1409 [2] = settings: treated vs untreated, iTRAQ
P. aeruginosa 1409 [3] = experiment: Membrane permeabilization assay (propidium iodide); assay type: cell-based, Pseudomonas aeruginosa; settings: 1 h at 25°C in LB, then PI 10 μg/mL 30 min, fluorescence microscope
Experimental: Then, PI was added to a final concentration of 10 μg/mL. After 30 min of incubation at 25°C, the cells were washed 3 times with PBS and immediately imaged with a fluorescence microscope (Olympus, Japan) (Yu et al., [2015]).
Figure 3 Bacterial plasma membrane permeabilization assay of cathelicidin-BF. Cathelicidin-BF and levofloxacin were incubated with MDR P. aeruginosa in Luria-Bertani medium at final concentrations of 4 × MIC (minimal inhibitory concentration) or ¼ × MIC. After incubation at 25°C for 1 h, bacteria were collected by centrifugation at 3,000 × g for 5 min and resuspended with PBS. The DNA-binding fluorescent dye PI was added to a final concentration of 10 μg/mL. After 30 min incubation at 25°C, the cells were washed 3 times with PBS and immediately imaged using a fluorescence microscope.

[4] = cathelicidin-BF at 1/2 MIC (4 μg/mL), 37°C, 2 h
[5] = cathelicidin-BF change not categorized as differentially expressed

SMILES: C[C@H]1COc2c(N3CCN(C)CC3)c(F)cc3c(=O)c(C(=O)O)cn1c23 [levofloxacin, reference compound]
- 4 × MIC (P. aeruginosa 1409 [1]): 64 µg/mL
- expression of protein Q9HVA1 (acetolactate synthase isozyme III small subunit) (P. aeruginosa 1409 [2]; [4]): overexpressed
- expression of protein Q9I3S7 (likely decarboxylase) (P. aeruginosa 1409 [2]; [4]): overexpressed
- expression of protein Q9HTV3 (3-octaprenyl-4-hydroxybenzoate carboxy-lyase) (P. aeruginosa 1409 [2]; [5]): downregulated
- expression of protein Q9I298 (putative 3-methylglutaconyl-ConA hydratase) (P. aeruginosa 1409 [2]; [5]): downregulated
- expression of protein Q9I5V3 (multifunctional CCA protein) (P. aeruginosa 1409 [2]; levofloxacin change not categorized as differentially expressed): downregulated
- integrity of bacterial membranes, PI staining at 4 × MIC (P. aeruginosa 1409 [3]; 4 × MIC (cathelicidin-BF 32 μg/mL, levofloxacin 64 μg/mL)): showed red fluorescence
- integrity of bacterial membranes, PI staining at ¼ × MIC (P. aeruginosa 1409 [3]; ¼ × MIC (cathelicidin-BF 2 μg/mL, levofloxacin 4 μg/mL)): no red dyes were detected
